Measured values: US20240150340A1, “CDK Inhibitors And Their Use As Pharmaceuticals” (Prelude Therapeutics Incorporated, priority 2022, published 2024)
pIC50: −log10 of the molar value.

Columns and labels:
CDK4/Cyclin D1 = molecular target: T1, CDK4/Cyclin D1 (Homo sapiens, UniProt P11802); test: CDK4/CyclinD1 Enzymatic Activity Assay (TR-FRET); assay type: biochemical; conditions: ATP 2 mM final, read-out: CDK4_D1 IC50
T1 construct: purchased ProQinase; host or cells: insect cell
How it was run: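 Insect-cell-expressed CDK4/Cyclin D1 (1 nM) with ULight-4E-BP1 (100 nM) and 2 mM ATP in HEPES pH 7.4; 9-dose 3-fold compound series preincubated 20 min, reaction started with 10 mM MgCl2, 45 min at 37° C. Europium anti-P-4E-BP1 TR-FRET read; IC50 from 4-parameter Hill fit.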

CDK2/Cyclin E2 = molecular target: T2, CDK2/Cyclin E2 (Homo sapiens, UniProt P24941); test: CDK2/CyclinE2 Enzymatic Activity Assay (TR-FRET); assay type: biochemical; conditions: ATP 1 mM final, read-out: CDK2_E1 IC50
T2 construct: Recombinant protein complex CDK2/Cyclin E2, expressed from insect cell, was purchased from ProQinase
How it was run: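 Recombinant insect-cell CDK2/Cyclin E2 (1 nM) phosphorylated ULight-4E-BP1 (50 nM) with 1 mM ATP in HEPES pH 7.4 buffer, after 20 min compound preincubation; MgCl2 (10 mM) started the 45 min reaction at 37° C. Europium anti-phospho-4E-BP1 TR-FRET read; 9-dose IC50 by 4-parameter fit.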

OVCAR3 p-RB = test: pRB ICW Assay in OVCAR3 Cells; assay type: cell-based; conditions: Homo sapiens, OVCAR-3, incubated with compound for 2 hours
How it was run: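 OVCAR3 cells were treated 2 h at 37° C. with a 9-point half-log compound series, duplicate wells, with 10 μM reference compound as maximum inhibition. Fixed, permeabilized cells were stained with anti-phospho-RB plus DRAQ5 and imaged at 700/800 nm (In-Cell Western).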

T1 sequence (P11802 whole entry): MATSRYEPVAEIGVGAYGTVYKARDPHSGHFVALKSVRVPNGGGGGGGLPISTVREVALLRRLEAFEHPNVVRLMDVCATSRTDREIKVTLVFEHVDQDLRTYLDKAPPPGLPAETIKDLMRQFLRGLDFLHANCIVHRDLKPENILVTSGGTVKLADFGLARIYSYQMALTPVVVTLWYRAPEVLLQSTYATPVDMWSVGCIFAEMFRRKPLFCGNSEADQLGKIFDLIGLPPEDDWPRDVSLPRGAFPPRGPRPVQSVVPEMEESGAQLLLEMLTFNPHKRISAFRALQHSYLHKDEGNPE
T1 sequence (P24385 whole entry partner): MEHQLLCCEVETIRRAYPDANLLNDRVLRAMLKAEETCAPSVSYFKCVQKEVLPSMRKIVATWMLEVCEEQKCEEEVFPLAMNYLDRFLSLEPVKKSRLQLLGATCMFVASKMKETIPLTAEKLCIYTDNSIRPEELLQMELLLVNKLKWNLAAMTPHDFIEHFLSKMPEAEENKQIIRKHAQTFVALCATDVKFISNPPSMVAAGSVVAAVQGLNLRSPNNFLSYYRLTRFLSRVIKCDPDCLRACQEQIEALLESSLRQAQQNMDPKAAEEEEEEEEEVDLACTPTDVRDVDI

SMILES | pIC50 (CDK4/Cyclin D1) | pIC50 (CDK2/Cyclin E2) | pIC50 (OVCAR3 p-RB)
CC(O)c1sc(-c2nc(N[C@H]3CCN(S(=O)(=O)c4cn(C)cn4)C[C@H]3F)ncc2C(F)(F)F)cc1C#N (stereo partly drawn) [Example 35, 5-(2-(((3R,4S)-3-fluoro-1-((1-methyl-1H-imidazol-4-yl)sulfonyl)piperidin-4-yl)amino)-5-(trifluoromethyl)pyrimidin-4-yl)-2-(1-hydroxyethyl)thiophene-3-carbonitrile] | ≥ 7.00 | ≥ 7.00 | ≥ 7.00
CC(O)c1sc(-c2nc(N[C@@H]3CCN(S(=O)(=O)c4cnn(C)c4)C[C@H]3F)ncc2C(F)(F)F)cc1C#N (stereo partly drawn) [Example 36, 5-(2-(((3R,4R)-3-fluoro-1-((1-methyl-1H-pyrazol-4-yl)sulfonyl)piperidin-4-yl)amino)-5-(trifluoromethyl)pyrimidin-4-yl)-2-(1-hydroxyethyl)thiophene-3-carbonitrile] | ≥ 7.00 | ≥ 7.00 | ≥ 7.00
CC(O)c1sc(-c2nc(N[C@@H]3CCN(S(=O)(=O)c4cn(C)cn4)C[C@H]3F)ncc2C(F)(F)F)cc1C#N (stereo partly drawn) [Example 37, 5-(2-(((3R,4R)-3-fluoro-1-((1-methyl-1H-imidazol-4-yl)sulfonyl)piperidin-4-yl)amino)-5-(trifluoromethyl)pyrimidin-4-yl)-2-(1-hydroxyethyl)thiophene-3-carbonitrile] | ≥ 7.00 | ≥ 7.00 | ≥ 7.00
C[C@@H]1CN(S(=O)(=O)c2cnn(C)c2)CC[C@@H]1Nc1ncc(C(F)(F)F)c(-c2cc(C#N)c(CC(C)(C)O)s2)n1 [Example 38, 2-(2-hydroxy-2-methylpropyl)-5-(2-(((3R,4S)-3-methyl-1-((1-methyl-1H-pyrazol-4-yl)sulfonyl)piperidin-4-yl)amino)-5-(trifluoromethyl)pyrimidin-4-yl)thiophene-3-carbonitrile] | 6.30 to 7.00 | ≥ 7.00 | 6.30 to 7.00
Cn1cnc(S(=O)(=O)N2CCC(Nc3ncc(C(F)(F)F)c(-c4cc(C#N)c(CC(C)(C)O)s4)n3)CC2)c1 [Example 39, 2-(2-hydroxy-2-methylpropyl)-5-(2-((1-((1-methyl-1H-imidazol-4-yl)sulfonyl)piperidin-4-yl)amino)-5-(trifluoromethyl)pyrimidin-4-yl)thiophene-3-carbonitrile] | ≥ 7.00 | ≥ 7.00 | ≥ 7.00
C[C@@H]1CN(S(=O)(=O)c2cn(C)cn2)CC[C@@H]1Nc1ncc(C(F)(F)F)c(-c2cc(C#N)c(CC(C)(C)O)s2)n1 [Example 40, 2-(2-hydroxy-2-methylpropyl)-5-(2-(((3R,4S)-3-methyl-1-((1-methyl-1H-imidazol-4-yl)sulfonyl)piperidin-4-yl)amino)-5-(trifluoromethyl)pyrimidin-4-yl)thiophene-3-carbonitrile] | 6.30 to 7.00 | ≥ 7.00 | 6.30 to 7.00
Cn1cc(S(=O)(=O)N2CC[C@H](Nc3ncc(C(F)(F)F)c(-c4cc(C#N)c(CC(C)(C)O)s4)n3)[C@H](F)C2)cn1 [Example 41, 5-(2-(((3R,4S)-3-fluoro-1-((1-methyl-1H-pyrazol-4-yl)sulfonyl)piperidin-4-yl)amino)-5-(trifluoromethyl)pyrimidin-4-yl)-2-(2-hydroxy-2-methylpropyl)thiophene-3-carbonitrile] | ≥ 7.00 | ≥ 7.00 | ≥ 7.00
Cn1cnc(S(=O)(=O)N2CC[C@H](Nc3ncc(C(F)(F)F)c(-c4cc(C#N)c(CC(C)(C)O)s4)n3)[C@H](F)C2)c1 [Example 42, 5-(2-(((3R,4S)-3-fluoro-1-((1-methyl-1H-imidazol-4-yl)sulfonyl)piperidin-4-yl)amino)-5-(trifluoromethyl)pyrimidin-4-yl)-2-(2-hydroxy-2-methylpropyl)thiophene-3-carbonitrile] | ≥ 7.00 | ≥ 7.00 | ≥ 7.00
C[C@@H]1CN(S(C)(=O)=O)CC[C@@H]1Nc1ncc(C(F)(F)F)c(-c2cc(C(N)=O)c(CC(C)(C)O)s2)n1 [Example 43, 2-(2-hydroxy-2-methylpropyl)-5-(2-(((3R,4S)-3-methyl-1-(methylsulfonyl)piperidin-4-yl)amino)-5-(trifluoromethyl)pyrimidin-4-yl)thiophene-3-carboxamide] | 6.30 to 7.00 | ≥ 7.00 | < 6.30
C[C@@H]1CN(S(=O)(=O)c2cnn(C)c2)CC[C@@H]1Nc1ncc(C(F)(F)F)c(-c2cc(C(N)=O)c(CC(C)(C)O)s2)n1 [Example 44, 2-(2-hydroxy-2-methylpropyl)-5-(2-(((3R,4S)-3-methyl-1-((1-methyl-1H-pyrazol-4-yl)sulfonyl)piperidin-4-yl)amino)-5-(trifluoromethyl)pyrimidin-4-yl)thiophene-3-carboxamide] | ≥ 7.00 | ≥ 7.00 | ≥ 7.00
Cn1cnc(S(=O)(=O)N2CCC(Nc3ncc(C(F)(F)F)c(-c4cc(C(N)=O)c(CC(C)(C)O)s4)n3)CC2)c1 [Example 45, 2-(2-hydroxy-2-methylpropyl)-5-(2-((1-((1-methyl-1H-imidazol-4-yl)sulfonyl)piperidin-4-yl)amino)-5-(trifluoromethyl)pyrimidin-4-yl)thiophene-3-carboxamide] | ≥ 7.00 | ≥ 7.00 | ≥ 7.00
Cn1cc(S(=O)(=O)N2CC[C@H](Nc3ncc(C(F)(F)F)c(-c4cc(C(N)=O)c(CC(C)(C)O)s4)n3)[C@H](F)C2)cn1 [Example 46, 5-(2-(((3R,4S)-3-fluoro-1-((1-methyl-1H-pyrazol-4-yl)sulfonyl)piperidin-4-yl)amino)-5-(trifluoromethyl)pyrimidin-4-yl)-2-(2-hydroxy-2-methylpropyl)thiophene-3-carboxamide] | ≥ 7.00 | ≥ 7.00 | ≥ 7.00
Cn1cnc(S(=O)(=O)N2CC[C@H](Nc3ncc(C(F)(F)F)c(-c4cc(C(N)=O)c(CC(C)(C)O)s4)n3)[C@H](F)C2)c1 [Example 47, 5-(2-(((3R,4S)-3-fluoro-1-((1-methyl-1H-imidazol-4-yl)sulfonyl)piperidin-4-yl)amino)-5-(trifluoromethyl)pyrimidin-4-yl)-2-(2-hydroxy-2-methylpropyl)thiophene-3-carboxamide] | ≥ 7.00 | ≥ 7.00 | 6.30 to 7.00
Cn1cc(S(=O)(=O)N2CC[C@@H](Nc3ncc(C(F)(F)F)c(-c4cc(C(N)=O)c(CC(C)(C)O)s4)n3)[C@H](F)C2)cn1 [Example 48, 5-(2-(((3R,4R)-3-fluoro-1-((1-methyl-1H-pyrazol-4-yl)sulfonyl)piperidin-4-yl)amino)-5-(trifluoromethyl)pyrimidin-4-yl)-2-(2-hydroxy-2-methylpropyl)thiophene-3-carboxamide] | ≥ 7.00 | ≥ 7.00 | ≥ 7.00
Cn1cnc(S(=O)(=O)N2CC[C@@H](Nc3ncc(C(F)(F)F)c(-c4cc(C(N)=O)c(CC(C)(C)O)s4)n3)[C@H](F)C2)c1 [Example 49, 5-(2-(((3R,4R)-3-fluoro-1-((1-methyl-1H-imidazol-4-yl)sulfonyl)piperidin-4-yl)amino)-5-(trifluoromethyl)pyrimidin-4-yl)-2-(2-hydroxy-2-methylpropyl)thiophene-3-carboxamide] | ≥ 7.00 | ≥ 7.00 | 6.30 to 7.00
Cn1cnc(S(=O)(=O)N2CCC(Nc3ncc(C(F)(F)F)c(-c4cc(C(N)=O)ns4)n3)CC2)c1 [Example 50, 5-(2-((1-((1-methyl-1H-imidazol-4-yl)sulfonyl)piperidin-4-yl)amino)-5-(trifluoromethyl)pyrimidin-4-yl)isothiazole-3-carboxamide] | ≥ 7.00 | ≥ 7.00 | ≥ 7.00
Cn1cc(S(=O)(=O)N2CCC(Nc3ncc(C(F)(F)F)c(-c4cc(C(N)=O)c(CC(C)(C)O)s4)n3)CC2)cn1 [Example 51, 2-(2-hydroxy-2-methylpropyl)-5-(2-((1-((1-methyl-1H-pyrazol-4-yl)sulfonyl)piperidin-4-yl)amino)-5-(trifluoromethyl)pyrimidin-4-yl)thiophene-3-carboxamide] | ≥ 7.00 | ≥ 7.00 | ≥ 7.00
Cc1sc(-c2nc(N[C@H]3CCN(S(C)(=O)=O)C[C@H]3C)ncc2C(F)(F)F)cc1C(N)=O [Example 52, 2-methyl-5-(2-(((3R,4S)-3-methyl-1-(methylsulfonyl)piperidin-4-yl)amino)-5-(trifluoromethyl)pyrimidin-4-yl)thiophene-3-carboxamide] | 6.30 to 7.00 | ≥ 7.00 | 6.30 to 7.00
Cc1sc(-c2nc(N[C@H]3CCN(S(=O)(=O)c4cn(C)cn4)C[C@H]3C)ncc2C(F)(F)F)cc1C#N [Example 53, 2-methyl-5-(2-(((3R,4S)-3-methyl-1-((1-methyl-1H-imidazol-4-yl)sulfonyl)piperidin-4-yl)amino)-5-(trifluoromethyl)pyrimidin-4-yl)thiophene-3-carbonitrile] | 6.30 to 7.00 | ≥ 7.00 | < 6.30
Cc1sc(-c2nc(N[C@H]3CCN(S(C)(=O)=O)C[C@H]3C)ncc2C(F)(F)F)cc1C#N [Example 54, 2-methyl-5-(2-(((3R,4S)-3-methyl-1-(methylsulfonyl)piperidin-4-yl)amino)-5-(trifluoromethyl)pyrimidin-4-yl)thiophene-3-carbonitrile] | < 6.30 | ≥ 7.00 | < 6.30
